# According to publication PMC7865522, “Analyzing Kinase Similarity in Small Molecule and Protein Structural Space to Explore the Limits of Multi-Target Screening” (Molecules, 2021):
# Columns and labels:
# [1] = biological target: T1, PI3K (Homo sapiens, UniProt P42336); assay: Eurofins in vitro kinase inhibition assay (HTRF, PIP3 displacement); format: biochemical; parameters: purchased Eurofins Cerep (contract assay); settings: compound 20 µM; mean (SD); above 50% significant, 25-50% weak
# Protocol: (§1) Kinase inhibition assays for EGFR, ErbB2, PI3K and BRAF were carried out by Eurofins Cerep following the protocols of Weber et al. (EGFR), Quian et al. (ErbB2), Sinnamon et al. (PI3K) and Kupcho et al. (BRAF). Briefly, except for PI3K, compounds were incubated with the respective kinase, ATP, and a substrate analog, and the effect of each compound on phosphorylation was measured. In the case of PI3K, the displacement of biotinylated PIP3 from a PIP3-binding complex by unlabelled PIP3 (produced from PIP2 by PI3K) was measured by Homogeneous Time Resolved Fluorescence (HTRF).
# (§2) Finally, inhibition of the respective kinases is calculated as the percentage inhibition of control activity.
# (§3) Table S3. Experimental results from the Euroﬁns assay. Inhibition of four kinases (EGFR, PI3K, ErbB2, BRAF) was measured at compound concentrations of 20 µM. Inhibition was calculated as % inhibition of control activity. According to CRO, values above 50% inhibition represent signiﬁcant inhibition, values above 25% weak inhibition effect and values below 25% as well as negative values are usually not signiﬁcant. Results are reported in mean (SD) format. […]
# (§4) a Compound interfered with assay readout.
# [2] = biological target: T1, PI3K; assay: DiscoverX KINOMEscan competition binding assay; parameters: purchased DiscoverX (KINOMEscan service); host or cells: E. coli BL21-derived host (T7 phage) or HEK-293; settings: compound 10 µM; lower values = higher affinity; below 35% = significant binding
# Protocol: (§5) Ligand binding experiments for the molecules selected from Profiles 1 and 2 towards nine kinases (EGFR, ErbB2, LCK, CDK2, BRAF, MET, p38α, PI3K and VEGFR2) and for molecules selected from Profiles 3 and 4 towards four kinases (EGFR, ErbB2, BRAF and VEGFR2) were carried out by DiscoverX using the supplied protocol as described in the Supplementary Materials. Briefly, ligand affinity was measured by competition with a resin-bound standard ligand and washed-off kinase concentration was determined via qPCR.
# (§6) Summarizing, binding of a compound to a kinase was tested in comparison to a control compound (see Table S2). […]
# (§7) 1.1. DiscoverX kinase assay
# (§8) For most assays, kinase-tagged T7 phage strains were grown in parallel in 24-well blocks in an E.coli host derived from the BL21 strain. E.coli were grown to log-phase and infected with T7 phage from a frozen stock (multiplicity of infection = 0.4) and incubated with shaking at 32°C until lysis (90-150 minutes). The lysates were centrifuged (6,000 x g) and ﬁltered (0.2µm) to remove cell debris.
# (§9) The remaining kinases were produced in HEK-293 cells and subsequently tagged with DNA for qPCR detection. Streptavidin-coated magnetic beads were treated with biotinylated small molecule ligands for 30 minutes at room temperature to generate afﬁnity resins for the kinases. The liganded beads were blocked with excess biotin and washed with blocking buffer (SeaBlock [Pierce], 1% BSA, 0.05% Tween 20, 1 mM DTT) to remove unbound ligands and to reduce non-speciﬁc phage binding. Binding reactions were assembled by combining kinases, liganded afﬁnity beads, and test compounds in 1x binding buffer (20% SeaBlock, 0.17x PBS, 0.05% Tween 20, 6 mM DTT). Test compounds were prepared as 40x stocks in 100% DMSO and directly diluted into the assay. All reactions were performed in polypropylene 384-well plates in a ﬁnal volume of 0.02 ml. The assay plates were incubated at room temperature with shaking for 1 hour and the afﬁnity beads were washed with wash buffer (1x PBS, 0.05% Tween 20). The beads were then re-suspended in elution buffer (1x PBS, 0.05% Tween 20, 0.5 µM non-biotinylated afﬁnity ligand) and incubated at room temperature with shaking for 30 minutes. The kinase concentration in the eluates was measured by qPCR. […]
# (§10) Table S2. Experimental % control values from the DiscoverX kinase assay. Compounds were tested against the nine kinases EGFR, ErbB2, LCK, CDK2, BRAF, MET, p38α, PI3K and VEGFR2, unless otherwise stated. Binding of kinase and compound were tested at a compound concentration of 10 µM and in comparison to a control compound. Lower values indicate a higher afﬁnity of the compound to the protein and values below 35% indicate signiﬁcant binding according to information of the CRO. […]
# (§11) a Compounds were only tested against four kinases (EGFR, ErbB2, BRAF and VEGFR2). b Compound was selected independently from two docking proﬁles and tested separately during
# [3] = biological target: T2, ErbB2 (Homo sapiens, UniProt P04626); assay: Eurofins in vitro kinase inhibition assay; format: biochemical; settings: compound 20 µM; mean (SD); above 50% significant, 25-50% weak
# T2 construct: purchased DiscoverX (KINOMEscan service); host or cells: E. coli BL21-derived host (T7 phage) or HEK-293
# Protocol: as §1, §2, §3, §4
# [4] = biological target: T3, BRAF (Homo sapiens, UniProt P15056); assay: Eurofins in vitro kinase inhibition assay; format: biochemical; settings: compound 20 µM; mean (SD); above 50% significant, 25-50% weak
# T3 construct: purchased DiscoverX (KINOMEscan service); host or cells: E. coli BL21-derived host (T7 phage) or HEK-293
# Protocol: as §1, §2, §3, §4
# [5] = biological target: T4, EGFR (Homo sapiens, UniProt P00533); assay: Eurofins in vitro kinase inhibition assay; format: biochemical; settings: compound 20 µM; mean (SD); above 50% significant, 25-50% weak
# T4 construct: purchased DiscoverX (KINOMEscan service); host or cells: E. coli BL21-derived host (T7 phage) or HEK-293
# Protocol: as §1, §2, §3, §4
# [6] = biological target: T2, ErbB2; assay: DiscoverX KINOMEscan competition binding assay; settings: compound 10 µM, lower values = higher affinity, below 35% = significant binding
# Protocol: as §5, §6, §7, §8, §9, §10, §11
# [7] = biological target: T3, BRAF; assay: DiscoverX KINOMEscan competition binding assay; settings: compound 10 µM, lower values = higher affinity, below 35% = significant binding
# Protocol: as §5, §6, §7, §8, §9, §10, §11
# [8] = biological target: T5, CDK2 (Homo sapiens, UniProt P24941); assay: DiscoverX KINOMEscan competition binding assay; settings: compound 10 µM; lower values = higher affinity; below 35% = significant binding
# T5 construct: purchased DiscoverX (KINOMEscan service); host or cells: E. coli BL21-derived host (T7 phage) or HEK-293
# Protocol: as §5, §6, §7, §8, §9, §10, §11
# [9] = biological target: T6, MET (Homo sapiens, UniProt P08581); assay: DiscoverX KINOMEscan competition binding assay; settings: compound 10 µM; lower values = higher affinity; below 35% = significant binding
# T6 construct: purchased DiscoverX (KINOMEscan service); host or cells: E. coli BL21-derived host (T7 phage) or HEK-293
# Protocol: as §5, §6, §7, §8, §9, §10, §11
# [10] = biological target: T7, LCK (Homo sapiens, UniProt P06239); assay: DiscoverX KINOMEscan competition binding assay; settings: compound 10 µM; lower values = higher affinity; below 35% = significant binding
# T7 construct: purchased DiscoverX (KINOMEscan service); host or cells: E. coli BL21-derived host (T7 phage) or HEK-293
# Protocol: as §5, §6, §7, §8, §9, §10, §11
# [11] = biological target: T4, EGFR; assay: DiscoverX KINOMEscan competition binding assay; settings: compound 10 µM; lower values = higher affinity; below 35% = significant binding
# Protocol: as §5, §6, §7, §8, §9, §10, §11
# [12] = biological target: T8, p38α (Homo sapiens, UniProt Q16539); assay: DiscoverX KINOMEscan competition binding assay; settings: compound 10 µM; lower values = higher affinity; below 35% = significant binding
# T8 construct: purchased DiscoverX (KINOMEscan service); host or cells: E. coli BL21-derived host (T7 phage) or HEK-293
# Protocol: as §5, §6, §7, §8, §9, §10, §11
# [13] = biological target: T9, VEGFR2 (Homo sapiens, UniProt P35968); assay: DiscoverX KINOMEscan competition binding assay; settings: compound 10 µM, lower values = higher affinity, below 35% = significant binding
# T9 construct: purchased DiscoverX (KINOMEscan service); host or cells: E. coli BL21-derived host (T7 phage) or HEK-293
# Protocol: as §5, §6, §7, §8, §9, §10, §11
# T6 sequence (P08581 25-1390): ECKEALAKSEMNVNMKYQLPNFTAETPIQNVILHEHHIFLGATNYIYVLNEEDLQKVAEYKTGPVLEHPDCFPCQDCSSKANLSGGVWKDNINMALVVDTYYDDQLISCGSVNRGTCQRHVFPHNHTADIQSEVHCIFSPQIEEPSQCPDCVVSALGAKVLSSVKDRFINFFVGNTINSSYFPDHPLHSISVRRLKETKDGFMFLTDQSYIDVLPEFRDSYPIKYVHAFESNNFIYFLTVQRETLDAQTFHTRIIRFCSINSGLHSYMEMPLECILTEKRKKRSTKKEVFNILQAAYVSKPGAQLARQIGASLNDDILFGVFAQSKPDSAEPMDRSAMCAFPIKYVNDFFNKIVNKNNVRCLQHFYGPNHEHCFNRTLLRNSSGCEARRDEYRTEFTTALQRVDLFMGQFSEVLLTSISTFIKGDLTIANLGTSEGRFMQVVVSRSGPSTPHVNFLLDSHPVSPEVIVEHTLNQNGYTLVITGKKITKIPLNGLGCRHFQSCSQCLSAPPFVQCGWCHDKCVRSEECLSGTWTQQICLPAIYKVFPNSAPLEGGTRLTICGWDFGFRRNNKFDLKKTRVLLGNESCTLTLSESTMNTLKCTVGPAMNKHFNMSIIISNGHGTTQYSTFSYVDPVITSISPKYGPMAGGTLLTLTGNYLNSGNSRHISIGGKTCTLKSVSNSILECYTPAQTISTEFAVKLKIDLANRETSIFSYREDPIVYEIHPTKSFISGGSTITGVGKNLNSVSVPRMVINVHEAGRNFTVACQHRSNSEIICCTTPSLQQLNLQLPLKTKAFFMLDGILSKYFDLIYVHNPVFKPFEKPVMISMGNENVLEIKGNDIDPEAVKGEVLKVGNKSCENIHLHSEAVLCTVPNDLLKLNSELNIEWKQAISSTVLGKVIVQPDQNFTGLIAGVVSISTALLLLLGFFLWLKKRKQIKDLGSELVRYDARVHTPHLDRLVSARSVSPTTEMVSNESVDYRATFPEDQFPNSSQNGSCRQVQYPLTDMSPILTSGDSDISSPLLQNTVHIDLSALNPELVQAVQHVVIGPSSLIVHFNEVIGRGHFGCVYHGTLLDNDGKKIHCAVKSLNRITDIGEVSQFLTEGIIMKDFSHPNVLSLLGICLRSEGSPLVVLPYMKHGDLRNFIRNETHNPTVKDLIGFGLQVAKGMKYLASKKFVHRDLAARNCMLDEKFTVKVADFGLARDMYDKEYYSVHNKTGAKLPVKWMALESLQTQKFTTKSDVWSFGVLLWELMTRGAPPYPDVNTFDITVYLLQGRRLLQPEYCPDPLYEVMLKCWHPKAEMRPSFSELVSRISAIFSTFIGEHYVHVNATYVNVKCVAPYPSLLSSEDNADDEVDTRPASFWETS
# T7 sequence (P06239 whole entry): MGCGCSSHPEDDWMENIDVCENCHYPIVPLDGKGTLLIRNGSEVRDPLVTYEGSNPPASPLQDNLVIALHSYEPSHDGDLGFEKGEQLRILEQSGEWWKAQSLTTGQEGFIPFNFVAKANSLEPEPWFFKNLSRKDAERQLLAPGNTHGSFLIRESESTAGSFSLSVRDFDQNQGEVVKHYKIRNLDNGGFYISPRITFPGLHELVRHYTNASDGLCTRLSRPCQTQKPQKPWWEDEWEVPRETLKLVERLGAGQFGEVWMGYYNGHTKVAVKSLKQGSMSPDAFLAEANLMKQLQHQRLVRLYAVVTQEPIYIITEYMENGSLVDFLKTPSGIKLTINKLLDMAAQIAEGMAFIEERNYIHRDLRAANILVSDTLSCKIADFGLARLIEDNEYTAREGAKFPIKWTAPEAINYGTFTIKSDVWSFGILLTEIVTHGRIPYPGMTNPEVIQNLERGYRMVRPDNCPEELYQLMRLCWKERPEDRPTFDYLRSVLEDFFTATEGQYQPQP
# T9 sequence (P35968 20-1356): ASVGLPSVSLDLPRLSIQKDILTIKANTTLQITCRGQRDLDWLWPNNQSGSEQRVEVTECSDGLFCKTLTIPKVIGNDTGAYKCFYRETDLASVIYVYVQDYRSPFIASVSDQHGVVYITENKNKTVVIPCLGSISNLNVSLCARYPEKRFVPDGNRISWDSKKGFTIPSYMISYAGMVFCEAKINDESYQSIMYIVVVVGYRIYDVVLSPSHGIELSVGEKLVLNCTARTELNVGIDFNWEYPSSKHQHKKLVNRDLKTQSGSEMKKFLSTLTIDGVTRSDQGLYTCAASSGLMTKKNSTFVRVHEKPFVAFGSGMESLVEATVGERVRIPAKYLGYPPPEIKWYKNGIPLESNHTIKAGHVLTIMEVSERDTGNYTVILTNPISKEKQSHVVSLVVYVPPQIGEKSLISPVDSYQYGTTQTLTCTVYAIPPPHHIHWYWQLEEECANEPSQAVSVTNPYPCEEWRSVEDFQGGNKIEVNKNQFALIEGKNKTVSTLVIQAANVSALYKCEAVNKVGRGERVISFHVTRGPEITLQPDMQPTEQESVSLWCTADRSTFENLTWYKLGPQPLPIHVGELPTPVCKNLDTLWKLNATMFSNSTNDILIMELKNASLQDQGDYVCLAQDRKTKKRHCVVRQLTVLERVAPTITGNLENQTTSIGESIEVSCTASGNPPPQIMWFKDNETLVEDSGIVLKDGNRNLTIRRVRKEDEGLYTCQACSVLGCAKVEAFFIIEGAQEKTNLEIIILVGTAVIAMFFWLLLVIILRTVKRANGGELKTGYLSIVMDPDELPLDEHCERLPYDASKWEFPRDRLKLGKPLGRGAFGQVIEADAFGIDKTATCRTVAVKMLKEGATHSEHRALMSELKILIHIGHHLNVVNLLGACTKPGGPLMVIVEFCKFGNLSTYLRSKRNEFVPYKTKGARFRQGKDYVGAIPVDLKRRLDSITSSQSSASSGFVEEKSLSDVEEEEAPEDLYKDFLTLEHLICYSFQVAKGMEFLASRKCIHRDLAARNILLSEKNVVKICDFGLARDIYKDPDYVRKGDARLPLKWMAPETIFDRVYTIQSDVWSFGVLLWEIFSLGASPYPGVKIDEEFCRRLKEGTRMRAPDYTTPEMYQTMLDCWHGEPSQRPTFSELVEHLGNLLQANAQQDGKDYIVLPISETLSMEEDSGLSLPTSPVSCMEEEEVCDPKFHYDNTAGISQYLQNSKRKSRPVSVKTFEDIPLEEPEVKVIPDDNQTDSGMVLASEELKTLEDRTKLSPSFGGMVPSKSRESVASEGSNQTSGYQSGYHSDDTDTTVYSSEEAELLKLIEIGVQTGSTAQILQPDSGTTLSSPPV
# T3 sequence (P15056 whole entry): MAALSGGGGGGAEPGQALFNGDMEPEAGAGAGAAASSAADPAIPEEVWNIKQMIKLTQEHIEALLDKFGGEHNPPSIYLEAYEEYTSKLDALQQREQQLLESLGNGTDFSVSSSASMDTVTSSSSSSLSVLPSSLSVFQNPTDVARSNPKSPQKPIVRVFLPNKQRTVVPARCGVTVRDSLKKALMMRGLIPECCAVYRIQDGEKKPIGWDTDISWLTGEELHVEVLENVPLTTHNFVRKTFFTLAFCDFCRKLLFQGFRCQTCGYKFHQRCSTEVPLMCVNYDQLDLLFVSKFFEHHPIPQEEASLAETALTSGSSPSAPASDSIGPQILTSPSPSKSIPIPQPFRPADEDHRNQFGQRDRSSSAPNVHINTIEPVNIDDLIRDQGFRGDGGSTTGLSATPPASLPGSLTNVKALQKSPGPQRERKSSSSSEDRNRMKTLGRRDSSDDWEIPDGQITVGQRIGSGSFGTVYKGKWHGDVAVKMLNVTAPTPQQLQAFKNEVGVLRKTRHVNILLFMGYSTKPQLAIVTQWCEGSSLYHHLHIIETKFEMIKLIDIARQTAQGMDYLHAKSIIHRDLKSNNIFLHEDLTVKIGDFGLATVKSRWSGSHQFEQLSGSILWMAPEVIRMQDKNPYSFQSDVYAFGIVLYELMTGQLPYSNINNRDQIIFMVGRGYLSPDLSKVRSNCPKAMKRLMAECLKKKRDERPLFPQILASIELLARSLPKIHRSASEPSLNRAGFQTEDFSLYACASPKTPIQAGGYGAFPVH
# T8 sequence (Q16539 whole entry): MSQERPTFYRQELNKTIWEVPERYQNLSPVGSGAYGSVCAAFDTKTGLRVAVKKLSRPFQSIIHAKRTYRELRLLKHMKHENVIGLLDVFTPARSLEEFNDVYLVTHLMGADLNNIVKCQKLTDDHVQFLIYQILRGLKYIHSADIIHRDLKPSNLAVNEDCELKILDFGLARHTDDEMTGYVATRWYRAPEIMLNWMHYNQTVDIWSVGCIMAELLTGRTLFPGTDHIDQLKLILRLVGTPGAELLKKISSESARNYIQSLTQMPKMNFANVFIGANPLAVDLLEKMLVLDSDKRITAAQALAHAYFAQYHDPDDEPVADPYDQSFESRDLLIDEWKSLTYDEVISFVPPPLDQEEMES
SMILES,"% inhibition of control activity, PI3K (Eurofins) [1]","% control, PI3K (DiscoverX) [2]","% inhibition of control activity, ErbB2 (Eurofins) [3]","% inhibition of control activity, BRAF (Eurofins) [4]","% inhibition of control activity, EGFR (Eurofins) [5]","% control, ErbB2 (DiscoverX) [6]","% control, ErbB2 (DiscoverX) ([6]; listed as K001MM009)","% control, BRAF (DiscoverX) [7]","% control, BRAF (DiscoverX) ([7]; listed as K001MM009)","% control, CDK2 (DiscoverX) [8]","% control, MET (DiscoverX) [9]","% control, LCK (DiscoverX) [10]","% control, EGFR (DiscoverX) [11]","% control, p38α (DiscoverX) [12]","% control, VEGFR2 (DiscoverX) [13]","% control, VEGFR2 (DiscoverX) ([13]; listed as K001MM009)"
Cc1[nH]c2nc3c(c(=O)n(Cc4ccccc4)c(=O)n3C)n2c1C [DS62156],1.5 (5.8) % inhibition,66 % control,3.1 (3.3) % inhibition,-6.3 (1.6) % inhibition,16.6 (0.4) % inhibition,96 % control,,95 % control,,100 % control,87 % control,100 % control,90 % control,97 % control,100 % control,
CC1(C)C2CC=C(COC(=O)c3cnn4cccnc34)C1C2 (centres unmarked) [DS34376],-2 (0.8) % inhibition,100 % control,-1.6 (1.9) % inhibition,-11.3 (4.2) % inhibition,16.1 (7.5) % inhibition,100 % control,,92 % control,,99 % control,100 % control,100 % control,90 % control,100 % control,100 % control,
Cc1ccc(/C=C2\N=C(c3cccc(S(=O)(=O)N(C)C)c3)OC2=O)s1 [DS74871],22.1 (2.3) % inhibition,100 % control,-8.3 (1.2) % inhibition,-44.9 (24.1) % inhibition,23.3 (4.2) % inhibition,100 % control,,100 % control,,100 % control,95 % control,90 % control,100 % control,81 % control,100 % control,
CN(C)S(=O)(=O)c1cccc(C2=N/C(=C\c3cccc(F)c3)C(=O)O2)c1 [DS74631],20 (5.2) % inhibition,100 % control,-4.6 (2.9) % inhibition,-22.8 (15.9) % inhibition,11.3 (4.5) % inhibition,95 % control,,100 % control,,100 % control,100 % control,87 % control,97 % control,83 % control,100 % control,

# Second part, the compound after the results:
"% inhibition of control activity, PI3K (Eurofins) [1]","% control, PI3K (DiscoverX) [2]","% inhibition of control activity, ErbB2 (Eurofins) [3]","% inhibition of control activity, BRAF (Eurofins) [4]","% inhibition of control activity, EGFR (Eurofins) [5]","% control, ErbB2 (DiscoverX) [6]","% control, ErbB2 (DiscoverX) ([6]; listed as K001MM009)","% control, BRAF (DiscoverX) [7]","% control, BRAF (DiscoverX) ([7]; listed as K001MM009)","% control, CDK2 (DiscoverX) [8]","% control, MET (DiscoverX) [9]","% control, LCK (DiscoverX) [10]","% control, EGFR (DiscoverX) [11]","% control, p38α (DiscoverX) [12]","% control, VEGFR2 (DiscoverX) [13]","% control, VEGFR2 (DiscoverX) ([13]; listed as K001MM009)",SMILES
0.4 (1.7) % inhibition,94 % control,10.5 (23.6) % inhibition,-20.8 (0.4) % inhibition,4.4 (14.0) % inhibition,91 % control,98 % control,100 % control,96 % control,100 % control,84 % control,100 % control,100 % control,100 % control,100 % control,98 % control,Cc1ccc(-n2cnnn2)cc1NC(=O)NCC1CC1 [DS44738]
-3.7 (0.3) % inhibition,100 % control,0.7 (1.1) % inhibition,-21.8 (9.5) % inhibition,15.3 (7.7) % inhibition,100 % control,,100 % control,,100 % control,100 % control,89 % control,97 % control,99 % control,97 % control,,COc1ccc(-c2nn(C(C)=O)c3c2C(=O)CC(C)(C)C3)cc1 [DS18339]
0.2 (3.6) % inhibition,87 % control,5.8 (0.2) % inhibition,-22.9 (4.9) % inhibition,7.8 (3.3) % inhibition,100 % control,,100 % control,,100 % control,97 % control,100 % control,100 % control,99 % control,100 % control,,CCc1nnc(NC(=O)c2nn(-c3ccc(C)cc3)ccc2=O)s1 [DS59212]
0.7 (0.8) % inhibition,100 % control,0.2 (2.8) % inhibition,-8.2 (13.6) % inhibition,23.4 (0.6) % inhibition,97 % control,,100 % control,,100 % control,95 % control,100 % control,100 % control,90 % control,100 % control,,CC(=O)c1cc(CC(=O)N(C)C[C@H]2CCCCO2)cs1 [DS84326]
